Reference: patent US7202247B2, “1,3-bis-(substituted-phenyl)-2-propyn-1-ones and their use to treat disorders” (AtheroGenics, Inc., priority 2001, dated 2007)

Legend:
VCAM-1 = test: In vitro VCAM-1 assay: TNF-α stimulated endothelial cells, cell-surface ELISA; type: cell-based; settings: primary human aortic (HAEC) or pulmonary (HPAEC) endothelial cells, TNF-α 1 ng/ml, approximately 16 hours exposure
Method: Cell Culture and compound dosing: Cultured primary human aortic (HAEC) or pulmonary (HPAEC) endothelial cells were obtained from Clonetics, Inc., and were used below passage 9. Cells were seeded in 96 well plates such that they would reach 90–95% confluency by the following day. On the following day the cells were stimulated with TNF-α (1 ng/ml) in the presence or absence of compounds dissolved in DMSO such that the final concentration of DMSO is 0.25% or less. To establish a dose curve for each compound, four concentrations in 2- to 5-fold increments were used. Cells were exposed to TNF-α and compounds for approximately 16 hours. The next day the cells were examined under microscope to score for visual signs of toxicity or cell stress.
Following 16 hr exposure to TNF-α and compound the media was discarded and the cells were washed once with Hanks Balanced Salt Solution (HBSS)/Phosphate buffered saline (PBS) (1:1). Primary antibodies against VCAM-1 (0.25 μg/ml in HBSS/PBS+5% FBS) were added and incubated for 30–60 minutes at 37° C. Cells were washed with HBSS/PBS three times, and secondary antibody Horse Radish Peroxidase (HRP)-conjugated goat anti-mouse IgG (1:500 in HBSS/PBS+5% FBS) were added and incubated for 30 minutes at 37° C. Cells were washed with HBSS/PBS four time and TMB substrate were added and incubated at room temperature in the dark until there was adequate development of blue color. The length of time of incubation was typically 5–15 minutes. 2N sulfuric acid was added to stop the color development and the data was collected by reading the absorbance on a BioRad ELISA plate reader at OD 450 nm. The results are expressed as IC50 values (the concentration (micromolar) of compound required to inhibit 50% of the maximal response of the control sample stimulated by TNF-α only).

## COC(=O)c1ccc(C(=O)C#Cc2cc(-c3cccs3)c(OC)cc2OC)cc1 [Example 1, 4-[3-(2,4-dimethoxy-5-thiophen-2-yl-phenyl)-propynoyl]-benzoic acid methyl ester]
other
  melting point: 198 to 200 °C

## COc1cc(OC)c(-c2cccs2)cc1C#CC(=O)c1ccc(C(=O)O)cc1 [Example 2, 4-[3-{2,4-Dimethoxy-5-(thiophen-2-yl)-phenyl}propynoyl]-benzoic Acid]
other
  melting point: 220 °C (dec.)
VCAM-1
  IC50: < 5 µM

## COC(=O)COc1c(OC)cc(C(=O)C#Cc2cc(-c3cccs3)c(OC)cc2OC)cc1OC [Example 3, {4-[3-(2,4-Dimethoxy-5-thiophen-2-yl-phenyl)-propynoyl]-2,6-dimethoxy-phenoxy}-acetic acid methyl ester]
VCAM-1
  IC50: < 5 µM

## COc1cc(OC)c(-c2cccs2)cc1C#CC(=O)c1cc(OC)c(OCC(=O)O)c(OC)c1 [Example 4, {4-[3-(2,4-Dimethoxy-5-thiophen-2-yl-phenyl)-propynoyl]-2,6-dimethoxy-phenoxy}-acetic acid]
VCAM-1
  IC50: < 5 µM
